Among the data in US8927533B2, “Thio derivatives bearing lactams as potent HDAC inhibitors and their uses as medicaments” (SIGMA-TAU Industrie Farmaceutiche Riunite S.p.A., priority 2011, dated 2015) are IC50 values, retold here.

What all share (format): biochemical
For one experiment, the target named is HDAC1 (Homo sapiens, UniProt Q13547). Briefly: HDAC enzymatic assay, HDAC1. How it is done:
(§1) Each compound was dissolved in DMSO, and progressively diluted solutions were used for testing. […] Upon its deacetylation, the fluorophore was released given rise to fluorescence emission which was detected by a fluorimeter, and the IC50 values of the compounds were determined by analyzing dose-response inhibition curves.

The next experiment concerns the target HDAC2 (Homo sapiens, UniProt Q92769). Briefly: HDAC enzymatic assay, HDAC2. How it is done: as §1
Experiment [1] has as its target T1, HDAC3 (complex of full length human HDAC3 with human NCOR2 amino acids 395-489) (Homo sapiens, UniProt O15379).
T1 construct: complex of full length human HDAC3 with a C-terminal His-tag; His-tag (C); host or cells: baculovirus expression system
Briefly: HDAC enzymatic assay, HDAC3. Here is the method: as §1

In another experiment the target is HDAC4 (Homo sapiens, UniProt P56524). Nature of the experiment: HDAC enzymatic assay, HDAC4. Here is the method:
as §1

The next experiment concerns the target HDAC5 (Homo sapiens, UniProt Q9UQL6). Briefly: HDAC enzymatic assay, HDAC5. How it is done: as §1
In a further experiment the target is T2, HDAC8 (Homo sapiens, UniProt Q9BY41).
T2 sequence (Q9BY41 1-377): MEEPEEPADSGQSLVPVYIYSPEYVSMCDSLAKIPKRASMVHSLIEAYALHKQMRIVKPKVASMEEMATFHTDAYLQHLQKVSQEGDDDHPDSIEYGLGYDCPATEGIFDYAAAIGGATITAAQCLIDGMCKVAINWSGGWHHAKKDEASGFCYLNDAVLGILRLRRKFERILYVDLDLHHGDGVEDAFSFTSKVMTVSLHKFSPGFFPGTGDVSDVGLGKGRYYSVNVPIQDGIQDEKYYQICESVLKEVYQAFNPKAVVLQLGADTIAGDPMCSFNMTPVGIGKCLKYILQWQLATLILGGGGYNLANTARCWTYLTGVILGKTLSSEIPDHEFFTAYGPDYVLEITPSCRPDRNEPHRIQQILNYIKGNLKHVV
Briefly: HDAC enzymatic assay, HDAC8. Here is the method: as §1

A further experiment deals with HDAC9 (Homo sapiens, UniProt Q9UKV0). Nature of the experiment: HDAC enzymatic assay, HDAC9. Here is the method: as §1
A further experiment has as its target T3, HDAC10 (Homo sapiens, UniProt Q969S8).
T3 sequence (Q969S8 1-669): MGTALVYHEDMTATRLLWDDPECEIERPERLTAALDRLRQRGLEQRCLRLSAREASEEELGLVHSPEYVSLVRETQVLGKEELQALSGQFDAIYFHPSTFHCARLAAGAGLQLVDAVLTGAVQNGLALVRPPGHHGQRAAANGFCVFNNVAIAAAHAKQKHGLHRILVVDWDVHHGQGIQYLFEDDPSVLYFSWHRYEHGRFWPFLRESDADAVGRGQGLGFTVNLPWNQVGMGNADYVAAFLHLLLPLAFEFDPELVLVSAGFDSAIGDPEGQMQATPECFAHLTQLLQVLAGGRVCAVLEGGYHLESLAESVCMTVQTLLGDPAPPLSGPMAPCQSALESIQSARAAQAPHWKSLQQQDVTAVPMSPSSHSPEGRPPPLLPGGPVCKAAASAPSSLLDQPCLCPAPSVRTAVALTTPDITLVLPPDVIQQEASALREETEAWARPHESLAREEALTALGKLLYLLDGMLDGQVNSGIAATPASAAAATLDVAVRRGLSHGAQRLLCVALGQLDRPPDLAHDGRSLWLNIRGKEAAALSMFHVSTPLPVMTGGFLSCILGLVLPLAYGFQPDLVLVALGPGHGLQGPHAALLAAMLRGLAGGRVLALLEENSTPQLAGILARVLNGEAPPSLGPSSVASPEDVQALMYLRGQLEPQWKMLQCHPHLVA
Nature of the experiment: HDAC enzymatic assay, HDAC10. Here is the method: as §1

Another experiment deals with T4, HDAC11 (Homo sapiens, UniProt Q96DB2).
T4 sequence (Q96DB2 1-347): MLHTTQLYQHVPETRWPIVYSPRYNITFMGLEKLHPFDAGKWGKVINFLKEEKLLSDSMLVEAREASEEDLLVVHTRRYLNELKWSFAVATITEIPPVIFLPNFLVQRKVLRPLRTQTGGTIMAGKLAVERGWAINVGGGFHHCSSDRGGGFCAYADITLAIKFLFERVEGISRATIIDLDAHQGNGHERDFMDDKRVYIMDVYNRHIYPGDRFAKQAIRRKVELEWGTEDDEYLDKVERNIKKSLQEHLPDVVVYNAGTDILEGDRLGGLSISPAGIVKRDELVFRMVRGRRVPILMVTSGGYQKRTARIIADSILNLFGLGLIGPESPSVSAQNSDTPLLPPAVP
Nature of the experiment: HDAC enzymatic assay, HDAC11. How it is done:
as §1

Setting [2] is: fluorogenic tetrapeptide RHKKAc substrate 10 μM, read-out: HDAC isoforms IC50 (nM), 1.
Where [3] appears, read: fluorogenic tetrapeptide RHKKAc substrate 10 μM, read-out: HDAC isoforms IC50 (nM), 2.
Where [4] appears, read: fluorogenic tetrapeptide RHKKAc substrate 10 μM, read-out: HDAC isoforms IC50 (nM), 3.
Setting [5] is: fluorogenic tetrapeptide RHKKAc substrate 10 μM, read-out: HDAC isoforms IC50 (nM), 4.
[6] abbreviates: fluorogenic tetrapeptide RHKKAc substrate 10 μM, read-out: HDAC isoforms IC50 (nM), 5.
The mark [7] stands for this setting: fluorogenic tetrapeptide RHKKAc substrate 10 μM, read-out: HDAC isoforms IC50 (nM), 8.
[8] abbreviates: fluorogenic tetrapeptide RHKKAc substrate 10 μM, read-out: HDAC isoforms IC50 (nM), 9.
Where [9] appears, read: fluorogenic tetrapeptide RHKKAc substrate 10 μM, read-out: HDAC isoforms IC50 (nM), 10.
The mark [10] stands for this setting: fluorogenic tetrapeptide RHKKAc substrate 10 μM, read-out: HDAC isoforms IC50 (nM), 11.
The mark [11] stands for this setting: Table 2, thio (SH) vs hydroxamate (CONHOH) MBG analogues, read-out: HDAC isoforms, 1 (IC50).
The mark [12] stands for this setting: Table 2, thio (SH) vs hydroxamate (CONHOH) MBG analogues, read-out: HDAC isoforms, 2 (IC50).
[13] abbreviates: Table 2, thio (SH) vs hydroxamate (CONHOH) MBG analogues, read-out: HDAC isoforms, 3 (IC50).
Where [14] appears, read: Table 2, thio (SH) vs hydroxamate (CONHOH) MBG analogues, read-out: HDAC isoforms, 4 (IC50).
Setting [15] is: Table 2, thio (SH) vs hydroxamate (CONHOH) MBG analogues, read-out: HDAC isoforms, 5 (IC50).
Setting [16] is: Table 2, thio (SH) vs hydroxamate (CONHOH) MBG analogues, read-out: HDAC isoforms, 8 (IC50).
The mark [17] stands for this setting: Table 2, thio (SH) vs hydroxamate (CONHOH) MBG analogues, read-out: HDAC isoforms, 9 (IC50).
Where [18] appears, read: Table 2, thio (SH) vs hydroxamate (CONHOH) MBG analogues, read-out: HDAC isoforms, 10 (IC50).
Where [19] appears, read: Table 2, thio (SH) vs hydroxamate (CONHOH) MBG analogues, read-out: HDAC isoforms, 11 (IC50).

Like-named read-outs stand apart in the source and are kept apart here.

Sequence of HDAC9 (Q9UKV0 whole entry): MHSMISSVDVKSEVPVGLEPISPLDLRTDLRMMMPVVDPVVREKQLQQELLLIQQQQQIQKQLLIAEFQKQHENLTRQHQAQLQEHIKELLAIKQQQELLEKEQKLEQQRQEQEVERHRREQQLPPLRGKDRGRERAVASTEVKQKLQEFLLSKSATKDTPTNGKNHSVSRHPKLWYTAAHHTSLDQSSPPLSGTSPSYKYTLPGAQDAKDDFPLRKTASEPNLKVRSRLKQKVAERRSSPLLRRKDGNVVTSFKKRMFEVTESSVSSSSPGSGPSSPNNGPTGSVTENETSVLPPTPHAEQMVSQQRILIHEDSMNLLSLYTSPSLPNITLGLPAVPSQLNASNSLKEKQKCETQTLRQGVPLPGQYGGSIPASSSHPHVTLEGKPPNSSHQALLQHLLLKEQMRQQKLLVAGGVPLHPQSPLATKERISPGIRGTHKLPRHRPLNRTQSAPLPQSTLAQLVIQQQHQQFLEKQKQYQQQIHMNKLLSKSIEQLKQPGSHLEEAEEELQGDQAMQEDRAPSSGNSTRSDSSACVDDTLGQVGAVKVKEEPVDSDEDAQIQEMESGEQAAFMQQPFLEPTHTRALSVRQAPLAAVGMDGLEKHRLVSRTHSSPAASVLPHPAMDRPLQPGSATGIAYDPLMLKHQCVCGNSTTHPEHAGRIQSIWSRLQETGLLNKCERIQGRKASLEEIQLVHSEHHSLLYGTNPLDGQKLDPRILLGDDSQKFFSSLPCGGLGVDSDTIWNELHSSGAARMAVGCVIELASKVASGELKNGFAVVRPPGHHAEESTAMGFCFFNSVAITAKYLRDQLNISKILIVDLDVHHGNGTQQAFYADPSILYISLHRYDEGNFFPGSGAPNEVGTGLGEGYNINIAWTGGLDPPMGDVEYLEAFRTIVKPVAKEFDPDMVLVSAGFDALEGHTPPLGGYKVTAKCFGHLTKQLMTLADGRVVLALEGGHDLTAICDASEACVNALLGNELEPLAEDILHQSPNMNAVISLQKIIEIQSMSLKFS
T1 sequence (O15379 whole entry, the tested form may be a part): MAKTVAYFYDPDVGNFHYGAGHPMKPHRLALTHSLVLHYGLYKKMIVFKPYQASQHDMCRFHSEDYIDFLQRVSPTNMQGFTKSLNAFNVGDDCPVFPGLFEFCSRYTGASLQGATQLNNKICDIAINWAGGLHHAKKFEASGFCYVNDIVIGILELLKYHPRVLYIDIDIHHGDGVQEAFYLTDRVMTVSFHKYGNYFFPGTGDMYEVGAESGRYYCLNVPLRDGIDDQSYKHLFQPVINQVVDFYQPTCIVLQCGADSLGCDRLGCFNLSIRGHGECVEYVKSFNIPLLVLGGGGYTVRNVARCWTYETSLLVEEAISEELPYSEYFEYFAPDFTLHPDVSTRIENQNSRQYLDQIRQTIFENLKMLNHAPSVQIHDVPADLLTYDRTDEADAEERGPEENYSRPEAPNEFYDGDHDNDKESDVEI
T1 sequence (Q9Y618 395-489 partner limits assumed): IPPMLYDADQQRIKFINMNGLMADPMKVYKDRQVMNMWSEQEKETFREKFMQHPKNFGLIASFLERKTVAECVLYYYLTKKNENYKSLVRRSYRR
Sequence of HDAC5 (Q9UQL6 whole entry): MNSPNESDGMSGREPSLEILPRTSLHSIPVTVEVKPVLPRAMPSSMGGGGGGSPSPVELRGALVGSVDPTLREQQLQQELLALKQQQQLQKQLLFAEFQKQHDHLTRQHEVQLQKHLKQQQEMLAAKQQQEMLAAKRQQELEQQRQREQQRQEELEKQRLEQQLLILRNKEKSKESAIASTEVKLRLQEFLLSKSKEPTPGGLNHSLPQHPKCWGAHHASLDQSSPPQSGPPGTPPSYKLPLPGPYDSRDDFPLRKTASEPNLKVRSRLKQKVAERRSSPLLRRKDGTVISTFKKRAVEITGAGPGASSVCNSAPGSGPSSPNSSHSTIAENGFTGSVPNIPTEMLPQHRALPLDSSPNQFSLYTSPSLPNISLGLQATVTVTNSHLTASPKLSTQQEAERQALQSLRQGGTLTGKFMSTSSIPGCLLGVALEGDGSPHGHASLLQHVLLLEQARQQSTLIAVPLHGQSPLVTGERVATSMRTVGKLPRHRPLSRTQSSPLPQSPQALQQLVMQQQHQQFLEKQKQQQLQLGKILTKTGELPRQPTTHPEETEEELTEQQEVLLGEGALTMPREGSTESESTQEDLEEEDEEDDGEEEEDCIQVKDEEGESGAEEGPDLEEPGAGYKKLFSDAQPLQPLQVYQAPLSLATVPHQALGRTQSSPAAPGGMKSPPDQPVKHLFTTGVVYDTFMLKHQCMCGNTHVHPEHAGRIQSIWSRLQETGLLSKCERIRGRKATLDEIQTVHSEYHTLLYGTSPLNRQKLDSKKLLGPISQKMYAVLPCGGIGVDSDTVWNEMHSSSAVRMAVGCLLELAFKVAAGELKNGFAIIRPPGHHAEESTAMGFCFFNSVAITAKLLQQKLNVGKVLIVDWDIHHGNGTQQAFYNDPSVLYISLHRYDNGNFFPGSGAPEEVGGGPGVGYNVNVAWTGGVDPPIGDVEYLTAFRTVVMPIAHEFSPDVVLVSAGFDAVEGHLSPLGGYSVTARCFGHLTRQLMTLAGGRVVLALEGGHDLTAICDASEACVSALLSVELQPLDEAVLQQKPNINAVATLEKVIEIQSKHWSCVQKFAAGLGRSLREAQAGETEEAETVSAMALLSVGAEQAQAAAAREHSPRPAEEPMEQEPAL
Sequence of HDAC1 (Q13547 whole entry): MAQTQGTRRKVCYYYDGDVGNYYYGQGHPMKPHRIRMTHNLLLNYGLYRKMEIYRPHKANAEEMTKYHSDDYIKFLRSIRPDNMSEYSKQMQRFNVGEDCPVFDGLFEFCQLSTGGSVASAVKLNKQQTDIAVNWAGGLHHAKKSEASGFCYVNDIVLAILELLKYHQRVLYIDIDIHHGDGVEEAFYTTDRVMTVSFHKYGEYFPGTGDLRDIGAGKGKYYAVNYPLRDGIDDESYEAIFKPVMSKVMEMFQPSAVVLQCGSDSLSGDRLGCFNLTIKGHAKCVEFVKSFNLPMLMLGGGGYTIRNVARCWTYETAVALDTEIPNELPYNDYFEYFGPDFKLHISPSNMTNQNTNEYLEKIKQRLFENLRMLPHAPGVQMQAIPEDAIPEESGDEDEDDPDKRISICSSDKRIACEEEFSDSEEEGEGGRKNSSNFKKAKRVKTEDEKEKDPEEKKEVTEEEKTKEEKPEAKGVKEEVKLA
Sequence of HDAC2 (Q92769 whole entry, the tested form may be a part): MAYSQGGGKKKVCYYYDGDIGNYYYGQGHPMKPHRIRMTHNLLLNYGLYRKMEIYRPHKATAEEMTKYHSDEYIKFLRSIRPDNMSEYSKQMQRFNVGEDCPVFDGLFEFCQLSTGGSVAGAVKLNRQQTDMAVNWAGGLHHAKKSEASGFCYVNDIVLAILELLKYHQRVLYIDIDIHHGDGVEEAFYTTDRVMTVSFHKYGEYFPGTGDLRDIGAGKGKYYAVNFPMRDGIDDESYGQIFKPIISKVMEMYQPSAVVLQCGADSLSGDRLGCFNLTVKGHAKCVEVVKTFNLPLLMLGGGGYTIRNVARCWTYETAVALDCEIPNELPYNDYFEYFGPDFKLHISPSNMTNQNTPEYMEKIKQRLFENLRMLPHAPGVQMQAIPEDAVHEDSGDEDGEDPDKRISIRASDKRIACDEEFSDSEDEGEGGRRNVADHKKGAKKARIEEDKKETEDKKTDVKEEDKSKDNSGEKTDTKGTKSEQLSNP
Sequence of HDAC4 (P56524 whole entry): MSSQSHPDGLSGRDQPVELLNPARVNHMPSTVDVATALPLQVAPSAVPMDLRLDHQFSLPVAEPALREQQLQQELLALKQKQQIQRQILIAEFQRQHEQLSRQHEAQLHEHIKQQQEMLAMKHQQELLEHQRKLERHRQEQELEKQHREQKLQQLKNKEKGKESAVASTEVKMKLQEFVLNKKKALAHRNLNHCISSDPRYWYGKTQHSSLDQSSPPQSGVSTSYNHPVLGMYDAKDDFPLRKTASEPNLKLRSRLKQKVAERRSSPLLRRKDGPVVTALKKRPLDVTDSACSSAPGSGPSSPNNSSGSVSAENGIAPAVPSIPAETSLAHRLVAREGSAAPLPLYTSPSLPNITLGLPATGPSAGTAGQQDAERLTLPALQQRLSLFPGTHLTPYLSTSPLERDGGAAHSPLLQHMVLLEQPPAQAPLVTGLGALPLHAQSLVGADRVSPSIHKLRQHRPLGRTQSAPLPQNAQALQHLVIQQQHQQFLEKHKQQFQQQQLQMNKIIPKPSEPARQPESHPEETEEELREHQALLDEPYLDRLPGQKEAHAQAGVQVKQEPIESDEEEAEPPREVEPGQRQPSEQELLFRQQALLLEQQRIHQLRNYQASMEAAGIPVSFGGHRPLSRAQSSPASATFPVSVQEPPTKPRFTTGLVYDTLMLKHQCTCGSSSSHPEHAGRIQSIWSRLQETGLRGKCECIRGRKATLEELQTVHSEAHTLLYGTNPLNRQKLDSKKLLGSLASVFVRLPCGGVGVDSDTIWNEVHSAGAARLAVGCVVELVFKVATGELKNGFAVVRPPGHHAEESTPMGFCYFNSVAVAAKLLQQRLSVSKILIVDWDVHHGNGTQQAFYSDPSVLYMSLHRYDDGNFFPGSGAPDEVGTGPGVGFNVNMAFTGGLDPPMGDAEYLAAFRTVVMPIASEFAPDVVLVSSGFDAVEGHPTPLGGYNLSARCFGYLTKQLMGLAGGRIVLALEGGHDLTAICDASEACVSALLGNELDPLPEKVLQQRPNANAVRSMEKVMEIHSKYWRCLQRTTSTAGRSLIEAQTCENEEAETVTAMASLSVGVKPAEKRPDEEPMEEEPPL

By IC50 is commonly meant the midpoint of a concentration-inhibition curve. For the molecule `O=C1NC[C@H](c2ccccc2)[C@H]1C(=O)N[C@@H](CCCCCS)C(=O)Nc1ccccc1` [Example 30, (3R,4S)-2-Oxo-4-phenyl-pyrrolidine-3-carboxylic acid ((S)-6-mercapto-1-phenylcarbamoyl-hexyl)-amide], the concentration for half-maximal inhibition (IC50) on HDAC1 (setting [2]) is 50 to 100 nM; at HDAC2 (setting [3]) it was 100 to 500 nM; in [1] (setting [4]), 50 to 100 nM; on HDAC4 (setting [5]) it was under 50 nM; at HDAC5 (setting [6]), 100 to 500 nM; on HDAC8 (setting [7]), 100 to 500 nM. In addition, the IC50 at HDAC9 (setting [8]) was 50 to 100 nM; at HDAC10 (setting [9]), under 50 nM; at HDAC11 (setting [10]) it was under 50 nM.
Turning to `O=C1CCC[C@@H](C(=O)N[C@@H](CCCCCS)C(=O)NC2CCCC2)N1` [Example 24, (S)-6-Oxo-piperidine-2-carboxylic acid ((S)-1-cyclopentylcarbamoyl-6-mercapto-hexyl)amide], the IC50 at HDAC1 (setting [2]) was 100 to 500 nM; on HDAC2 (setting [3]), 100 to 500 nM; in [1] (setting [4]) it was 50 to 100 nM; on HDAC4 (setting [5]) it was under 50 nM; at HDAC5 (setting [6]), 100 to 500 nM; at HDAC8 (setting [7]), 100 to 500 nM. For the same molecule, the half-maximal inhibitory concentration (IC50) at HDAC9 (setting [8]) was under 50 nM; at HDAC10 (setting [9]), 100 to 500 nM; on HDAC11 (setting [10]), 50 to 100 nM.
With `O=C1NC[C@@H](c2ccccc2)[C@@H]1C(=O)N[C@@H](CCCCCS)C(=O)Nc1ccccc1` [Example 31, (3S,4R)-2-Oxo-4-phenyl-pyrrolidine-3-carboxylic acid ((S)-6-mercapto-1-phenylcarbamoyl-hexyl)-amide], the 50% inhibitory concentration (IC50) (at HDAC1 (setting [11]); on HDAC1 (setting [2]); at HDAC2 (setting [12]); at HDAC2 (setting [3]); in experiment [1] (setting [13]); in experiment [1] (setting [4])) was under 50 nM in each case. Moreover, the half-inhibitory concentration (IC50) at HDAC4 (setting [14]), at HDAC4 (setting [5]), on HDAC5 (setting [15]), at HDAC5 (setting [6]), on HDAC8 (setting [16]) and on HDAC8 (setting [7]) was under 50 nM in each case. Also, the IC50 at HDAC9 (setting [17]), at HDAC9 (setting [8]), at HDAC10 (setting [18]), at HDAC10 (setting [9]), on HDAC11 (setting [19]) and on HDAC11 (setting [10]) was under 50 nM in each case.
As for `O=C1NC[C@H](c2ccccc2)[C@@H]1C(=O)N[C@@H](CCCCCS)C(=O)Nc1ccccc1` [Example 28, (3S,4S)-2-Oxo-4-phenyl-pyrrolidine-3-carboxylic acid ((S)-6-mercapto-1-phenylcarbamoyl-hexyl)-amide], the IC50 on HDAC1 (setting [2]) is under 50 nM; at HDAC2 (setting [3]), 100 to 500 nM; in experiment [1] (setting [4]), under 50 nM; at HDAC4 (setting [5]), under 50 nM; at HDAC5 (setting [6]), 50 to 100 nM; at HDAC8 (setting [7]), 100 to 500 nM. Further, the concentration for half-maximal inhibition (IC50) at HDAC9 (setting [8]), on HDAC10 (setting [9]) and on HDAC11 (setting [10]) was under 50 nM each time.
Regarding `CC(=O)SCCCCC[C@H](NC(=O)[C@H]1CCC(=O)N1)C(=O)Nc1ccccc1` [Example 21, Thioacetic acid S—{(S)-6-[((R)-5-oxo-pyrrolidine-2-carbonyl)-amino]-6-phenylcarbamoyl-hexyl}ester], the IC50 on HDAC1 (setting [11]) is under 50 nM; at HDAC2 (setting [12]) it was 50 to 100 nM; in experiment [1] (setting [13]), under 50 nM; on HDAC4 (setting [14]), under 50 nM; at HDAC5 (setting [15]) it was under 50 nM; on HDAC8 (setting [16]), 100 to 500 nM. Moreover, the concentration for half-maximal inhibition (IC50) on HDAC9 (setting [17]), on HDAC10 (setting [18]) and on HDAC11 (setting [19]) was under 50 nM each time.
With `CN1C(=O)CCC[C@H]1C(=O)N[C@@H](CCCCCS)C(=O)Nc1ccccc1` [Example 40, (S)-1-Methyl-6-oxo-piperidine-2-carboxylic acid ((S)-6-mercapto-1-phenylcarbamoyl-hexyl)-amide], the IC50 is under 50 nM on HDAC1 (setting [2]); 50 to 100 nM on HDAC2 (setting [3]); under 50 nM in experiment [1] (setting [4]); 100 to 500 nM on HDAC4 (setting [5]); under 50 nM on HDAC5 (setting [6]); 100 to 500 nM on HDAC8 (setting [7]). In addition, the concentration for half-maximal inhibition (IC50) on HDAC9 (setting [8]), on HDAC10 (setting [9]) and on HDAC11 (setting [10]) was under 50 nM in each case.
